From US20230233569A1 (Revolution Medicines, Inc., priority 2020, published 2023)
Like-named read-outs stand apart in the source and are kept apart here.

Columns and labels:
[1] = tested on: K-Ras G12C (NCI-H358 cells); test: Potency assay: pERK (AlphaLISA SureFire or In-Cell Western); format: cell-based; conditions: Homo sapiens, NCI-H358
In short: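 NCI-H358 cells plated overnight, then treated 4 h at 37 °C with 10-point 3-fold DMSO dilutions (10 mM top stock), in duplicate. pERK1/2 read by AlphaLISA SureFire Ultra lysate assay or by In-Cell Western with DRAQ5 DNA stain. IC50 from 4-parameter sigmoidal fit of signal vs log concentration.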

NCI-H358 (K-Ras G12C) = test: CellTiter-Glo cell viability assay, 5-day treatment; format: cell-based; conditions: Homo sapiens
In short: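 Seeded cells received test compound by direct dispensing. On day 5 the plates sat at room temperature approximately 30 minutes, then luminescence was measured. Data were normalized to DMSO and curve-fitted with four parameters.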

NRAS WT = NRAS WT (Homo sapiens, UniProt P01111+P62937); test: Disruption of BRAF RBD interaction with Ras (FRET / MOA assay, with Cyclophilin A); format: biochemical; conditions: NRAS WT; read-out: NRAS WT FRET data IC50
Sequence of NRAS WT (P01111 whole entry): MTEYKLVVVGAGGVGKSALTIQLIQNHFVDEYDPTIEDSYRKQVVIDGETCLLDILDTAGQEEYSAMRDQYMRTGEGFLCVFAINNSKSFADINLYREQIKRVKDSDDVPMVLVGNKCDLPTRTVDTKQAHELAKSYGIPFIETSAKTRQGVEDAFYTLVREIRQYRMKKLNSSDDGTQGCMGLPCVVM
Sequence of NRAS WT (P62937 whole entry): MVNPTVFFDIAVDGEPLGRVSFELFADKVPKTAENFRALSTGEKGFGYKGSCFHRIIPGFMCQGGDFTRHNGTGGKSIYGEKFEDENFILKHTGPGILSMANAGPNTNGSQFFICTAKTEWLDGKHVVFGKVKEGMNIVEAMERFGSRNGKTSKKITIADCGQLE
In short: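 TR-FRET in 25 mM HEPES pH 7.3, 100 mM NaCl, 5 mM MgCl2, 0.1% BSA: 25 μM Cyclophilin A, 12.5 nM His6-Ras-GMPPNP, 50 nM GST-BRAF RBD with compound (10-point 3-fold series from 30 μM), 3 h at 25° C. Anti-His Eu/anti-GST APC added, 1.5 h more; IC50 from decreased FRET ratio versus DMSO.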

CCn1c(-c2cccnc2[C@H](C)OC)c2c3cc(ccc31)-c1cc(O)cc(c1)C[C@H](NC(=O)[C@H](C(C)C)N(C)C(=O)[C@H]1CCN(C(=O)OC)C1)C(=O)N1CCC[C@H](N1)C(=O)OCC(C)(C)C2 (atropisomer, axis not shown) [Example A3]
EC50 ([1]; read-out: H358 pERK EC50): 18 nM | IC50 (NCI-H358 (K-Ras G12C); NCI-H358, 120 h, 5-day treatment, read-out: H358 Cell Viability IC50): 57 nM | IC50 (NRAS WT): 10 to 100 nM

CCn1c(-c2cccnc2[C@H](C)OC)c2c3cc(ccc31)N1CCO[C@@H](C[C@H](NC(=O)[C@H](C(C)C)N(C)C(=O)[C@@]3(F)CCN(C(=O)C#CC(C)(C)N4CCC4)C3)C(=O)N3CCC[C@H](N3)C(=O)OCC(C)(C)C2)C1 [Example A726]
EC50 ([1]; H358 KRAS G12C, read-out: pERK EC50): < 5000 nM | IC50 (NCI-H358 (K-Ras G12C); NCI-H358, H358, K-Ras G12C, read-out: Additional H358 Cell Viability assay data (K-Ras G12C, IC50)): < 10 nM
